For this test, the system named is HBV. As to conditions: Hepatitis B virus, HePAD38, 144 h, read-out: Cell Activity.
`O=C(Nc1ccc(F)c(Cl)c1)N1CCn2nc(NC3(CO)CCC3)cc2C1` [Example 32, N-(3-chloro-4-fluorophenyl)-2-{[1-(hydroxymethyl)cyclobutyl]amino}-4H,5H,6H,7H-pyrazolo[1,5-a]pyrazine-5-carboxamide]: the EC50 was less than 1000 nM.

`CC(C)(CO)CNc1cc2n(n1)CCN(C(=O)Nc1ccc(F)c(Cl)c1)C2` [Example 17, N-(3-chloro-4-fluorophenyl)-2-[(3-hydroxy-2,2-dimethylpropyl)amino]-4H,5H,6H,7H-pyrazolo[1,5-a]pyrazine-5-carboxamide]: the EC50 was less than 1000 nM. As for `COCC1(CNc2cc3n(n2)CCN(C(=O)Nc2ccc(F)c(Cl)c2)C3)CC1` [Example 15, N-(3-chloro-4-fluorophenyl)-2-({[1-(methoxymethyl)cyclopropyl]methyl}amino)-4H,5H,6H,7H-pyrazolo[1,5-a]pyrazine-5-carboxamide], the EC50 is less than 1000 nM. As for `O=C(Nc1ccc(F)c(Cl)c1)N1CCn2nc(NS(=O)(=O)C3CC3)cc2C1` [Example 12, N-(3-chloro-4-fluorophenyl)-2-cyclopropanesulfonamido-4H,5H,6H,7H-pyrazolo[1,5-a]pyrazine-5-carboxamide], the EC50 was less than 1000 nM. For the molecule `CC1Cn2nc(NC(=O)C3CCOC3)cc2CN1C(=O)Nc1ccc(F)c(Cl)c1` (stereo not shown) [Example 3, N-(3-chloro-4-fluorophenyl)-6-methyl-2-(oxolane-3-amido)-4H,5H,6H,7H-pyrazolo[1,5-a]pyrazine-5-carboxamide], the EC50 is less than 1000 nM. As to `O=C(Nc1ccc(F)c(Cl)c1)N1CCn2nc(NCC3CCOCC3)cc2C1` [Example 6, N-(3-chloro-4-fluorophenyl)-2-{[(oxan-4-yl)methyl]amino}-4H,5H,6H,7H-pyrazolo[1,5-a]pyrazine-5-carboxamide], the EC50 lay within 1000 to 10000 nM.

`COC1(CNc2cc3n(n2)CCN(C(=O)Nc2ccc(F)c(Cl)c2)C3)CCOC1` (stereo not shown) [Example 25, N-(3-chloro-4-fluorophenyl)-2-{[(3-methoxyoxolan-3-yl)methyl]amino}-4H,5H,6H,7H-pyrazolo[1,5-a]pyrazine-5-carboxamide]: the EC50 lay in the range of 1000 to 10000 nM. Turning to `O=C(Nc1cc2n(n1)CCN(C(=O)Nc1ccc(F)c(Cl)c1)C2)C1CCN(c2ccncc2)CC1` [Example 28, N-{5-[(3-chloro-4-fluorophenyl)carbamoyl]-4H,5H,6H,7H-pyrazolo[1,5-a]pyrazin-2-yl}-1-(pyridin-4-yl)piperidine-4-carboxamide], the EC50 is less than 1000 nM. `O=C(Nc1cc2n(n1)CCN(C(=O)Nc1ccc(F)c(Cl)c1)C2)C1CCN(C2CC2)CC1` [Example 31, N-{5-[(3-chloro-4-fluorophenyl)carbamoyl]-4H,5H,6H,7H-pyrazolo[1,5-a]pyrazin-2-yl}-1-cyclopropylpiperidine-4-carboxamide]: the EC50 was less than 1000 nM. For `CC(Nc1cc2n(n1)CCN(C(=O)Nc1ccc(F)c(Cl)c1)C2)C1CCOC1` (stereo not shown) [Example 26, N-(3-chloro-4-fluorophenyl)-2-{[1-(oxolan-3-yl)ethyl]amino}-4H,5H,6H,7H-pyrazolo[1,5-a]pyrazine-5-carboxamide], the EC50 was in the range of 1000 to 10000 nM.

Regarding `O=C(Nc1ccc(F)c(Cl)c1)N1CCn2nc(NCC3CCOC3)cc2C1` (stereo not shown) [Example 10, N-(3-chloro-4-fluorophenyl)-2-{[(oxolan-3-yl)methyl]amino}-4H,5H,6H,7H-pyrazolo[1,5-a]pyrazine-5-carboxamide], the EC50 lay in the range of 1000 to 10000 nM.

With `CC1Cn2nc(N)cc2CN1C(=O)Nc1ccc(F)c(Cl)c1` (stereo not shown) [Example 7, 2-amino-N-(3-chloro-4-fluorophenyl)-6-methyl-4H,5H,6H,7H-pyrazolo[1,5-a]pyrazine-5-carboxamide], the EC50 lay in the range of 1000 to 10000 nM.

In the case of `CC1(CNc2cc3n(n2)CCN(C(=O)Nc2ccc(F)c(Cl)c2)C3)CCOC1` (stereo not shown) [Example 20, N-(3-chloro-4-fluorophenyl)-2-{[(3-methyloxolan-3-yl)methyl]amino}-4H,5H,6H,7H-pyrazolo[1,5-a]pyrazine-5-carboxamide], the EC50 is less than 1000 nM.

Take `O=C(Nc1ccc(F)c(Cl)c1)N1CCn2nc(NCC3(CO)CCC3)cc2C1` [Example 21, N-(3-chloro-4-fluorophenyl)-2-({[1-(hydroxymethyl)cyclobutyl]methyl}amino)-4H,5H,6H,7H-pyrazolo[1,5-a]pyrazine-5-carboxamide]: the EC50 is less than 1000 nM.

`O=C(Nc1ccc(F)c(Cl)c1)N1CCn2nc(NCC3CCCOC3)cc2C1` (stereo not shown) [Example 16, N-(3-chloro-4-fluorophenyl)-2-{[(oxan-3-yl)methyl]amino}-4H,5H,6H,7H-pyrazolo[1,5-a]pyrazine-5-carboxamide]: the EC50 lay in the range of 1000 to 10000 nM. As for `O=C(Nc1cc2n(n1)CCN(C(=O)Nc1ccc(F)c(Cl)c1)C2)C1CCNC(C(F)(F)F)C1` (stereo not shown) [Example 29, N-{5-[(3-chloro-4-fluorophenyl)carbamoyl]-4H,5H,6H,7H-pyrazolo[1,5-a]pyrazin-2-yl}-2-(trifluoromethyl)piperidine-4-carboxamide], the EC50 was less than 1000 nM. Consider `COCC1(S(=O)(=O)Nc2cc3n(n2)CCN(C(=O)Nc2ccc(F)c(Cl)c2)C3)CC1` [Example 11, N-(3-chloro-4-fluorophenyl)-2-[1-(methoxymethyl)cyclopropanesulfonamido]-4H,5H,6H,7H-pyrazolo[1,5-a]pyrazine-5-carboxamide], for which the EC50 is less than 1000 nM. Turning to `O=C(Nc1ccc(F)c(Cl)c1)N1CCn2nc(N[C@@H]3CCC[C@H](O)C3)cc2C1` [Example 34, N-(3-chloro-4-fluorophenyl)-2-{[(1R,3S)-3-hydroxycyclohexyl]amino}-4H,5H,6H,7H-pyrazolo[1,5-a]pyrazine-5-carboxamide], the EC50 was in the range of 1000 to 10000 nM. Regarding `O=C(Nc1ccc(F)c(Cl)c1)N1CCn2nc(N[C@H]3CC[C@H](O)CC3)cc2C1` [Example 35, N-(3-chloro-4-fluorophenyl)-2-{[(1r,4r)-4-hydroxycyclohexyl]amino}-4H,5H,6H,7H-pyrazolo[1,5-a]pyrazine-5-carboxamide], the EC50 is 1000 to 10000 nM.

Consider `O=C(Nc1cc2n(n1)CCN(C(=O)Nc1ccc(F)c(Cl)c1)C2)C1CCOCC1` [Example 8, N-(3-chloro-4-fluorophenyl)-2-(oxane-4-amido)-4H,5H,6H,7H-pyrazolo[1,5-a]pyrazine-5-carboxamide], for which the EC50 is less than 1000 nM. For `O=C(Nc1ccc(F)c(Cl)c1)N1CCn2nc(NCC3(O)CCC3)cc2C1` [Example 33, N-(3-chloro-4-fluorophenyl)-2-{[(1-hydroxycyclobutyl)methyl]amino}-4H,5H,6H,7H-pyrazolo[1,5-a]pyrazine-5-carboxamide], the EC50 was less than 1000 nM. Regarding `O=C(Nc1ccc(F)cc1)N1CCn2nc(NS(=O)(=O)C3(CO)CC3)cc2C1` [Example 14, N-(4-fluorophenyl)-2-[1-(hydroxymethyl)cyclopropanesulfonamido]-4H,5H,6H,7H-pyrazolo[1,5-a]pyrazine-5-carboxamide], the EC50 was less than 100000 nM. For the molecule `COC(=O)N1CCC(C(=O)Nc2cc3n(n2)CCN(C(=O)Nc2ccc(F)c(Cl)c2)C3)CC1` [Example 30, methyl 4-({5-[(3-chloro-4-fluorophenyl)carbamoyl]-4H,5H,6H,7H-pyrazolo[1,5-a]pyrazin-2-yl}carbamoyl)piperidine-1-carboxylate], the EC50 was less than 1000 nM. For `CC(=O)Nc1cc2n(n1)CCN(C(=O)Nc1ccc(F)c(Cl)c1)C2` [Example 5, N-(3-chloro-4-fluorophenyl)-2-acetamido-4H,5H,6H,7H-pyrazolo[1,5-a]pyrazine-5-carboxamide] the value was less than 1000 nM; for `O=C(Nc1ccc(F)c(Cl)c1)N1CCn2nc(NC3CCOC3)cc2C1` (stereo not shown) [Example 1, N-(3-chloro-4-fluorophenyl)-2-[(oxolan-3-yl)amino]-4H,5H,6H,7H-pyrazolo[1,5-a]pyrazine-5-carboxamide], 1000 to 10000 nM. For `CC(CO)CNc1cc2n(n1)CCN(C(=O)Nc1ccc(F)c(Cl)c1)C2` (stereo not shown) [Example 23, N-(3-chloro-4-fluorophenyl)-2-[(3-hydroxy-2-methylpropyl)amino]-4H,5H,6H,7H-pyrazolo[1,5-a]pyrazine-5-carboxamide] the value was 1000 to 10000 nM; for `O=C(Nc1ccc(F)c(Cl)c1)N1CCn2nc(NC3CCC(O)CC3)cc2C1` (stereo not shown) [Example 2, N-(3-chloro-4-fluorophenyl)-2-[(4-hydroxycyclohexyl)amino]-4H,5H,6H,7H-pyrazolo[1,5-a]pyrazine-5-carboxamide], less than 1000 nM; for `O=C(Nc1ccc(F)c(Cl)c1)N1CCn2nc(NC3(c4ccccc4)CC3)cc2C1` [Example 27, N-(3-chloro-4-fluorophenyl)-2-[(1-phenylcyclopropyl)amino]-4H,5H,6H,7H-pyrazolo[1,5-a]pyrazine-5-carboxamide], less than 1000 nM. As for `CCC(C)(CO)CNc1cc2n(n1)CCN(C(=O)Nc1ccc(F)c(Cl)c1)C2` (stereo not shown) [Example 22, N-(3-chloro-4-fluorophenyl)-2-[(2-ethyl-3-hydroxy-2-methylpropyl)amino]-4H,5H,6H,7H-pyrazolo[1,5-a]pyrazine-5-carboxamide], the figure is less than 1000 nM; as for `O=C(Nc1ccc(F)c(Cl)c1)N1CCn2nc(N[C@H]3C[C@H](O)C3)cc2C1` [Example 36, N-(3-chloro-4-fluorophenyl)-2-{[(1r,3r)-3-hydroxycyclobutyl]amino}-4H,5H,6H,7H-pyrazolo[1,5-a]pyrazine-5-carboxamide], 1000 to 10000 nM. Consider `O=C(Nc1cc2n(n1)CCN(C(=O)Nc1ccc(F)c(Cl)c1)C2)C1CCOC1` (stereo not shown) [Example 9, N-(3-chloro-4-fluorophenyl)-2-(oxolane-3-amido)-4H,5H,6H,7H-pyrazolo[1,5-a]pyrazine-5-carboxamide], for which the EC50 is less than 1000 nM.

Take `COC1CCC(Nc2cc3n(n2)CCN(C(=O)Nc2ccc(F)c(Cl)c2)C3)CC1` (stereo not shown) [Example 19, N-(3-chloro-4-fluorophenyl)-2-[(4-methoxycyclohexyl)amino]-4H,5H,6H,7H-pyrazolo[1,5-a]pyrazine-5-carboxamide]: the EC50 is less than 1000 nM.

Turning to `O=C(Nc1ccc(F)c(Cl)c1)N1CCn2nc(NS(=O)(=O)C3(CO)CC3)cc2C1` [Example 13, N-(3-chloro-4-fluorophenyl)-2-[1-(hydroxymethyl)cyclopropanesulfonamido]-4H,5H,6H,7H-pyrazolo[1,5-a]pyrazine-5-carboxamide], the EC50 was less than 1000 nM. For `CC1Cn2nc(NCC3CCOC3)cc2CN1C(=O)Nc1ccc(F)c(Cl)c1` (stereo not shown) [Example 4], the EC50 lay within 1000 to 10000 nM.

Values taken from US20220009931A1, “NOVEL UREA 6,7-DIHYDRO-4H-PYRAZOLO[1,5-A]PYRAZINES ACTIVE AGAINST THE HEPATITIS B VIRUS (HBV)” (AICURIS GMBH & CO. KG, priority 2018, published 2022).
